Measurements reported in ChEMBL document CHEMBL1649509, “Lon protease is essential for paradoxical survival of Escherichia coli exposed to high concentrations of quinolone” (Antimicrob Agents Chemother, 2009).
The source made the active and inactive calls. No cut-off for these calls is given here.

Experiments:
Format in all cases: functional, organism-based
Escherichia coli [1] = assay: Antibacterial activity against Escherichia coli K-12 harboring lon sulA double mutant gene
Escherichia coli [2] = assay: Antibacterial activity against Escherichia coli K-12 harboring lon lexA3 mutant gene
Escherichia coli [3] = assay: Antibacterial activity against lon-deficient Escherichia coli KD2372 by viscometric assay
Escherichia coli [4] = assay: Antibacterial activity against Escherichia coli K-12 by viscometric assay
Escherichia coli [5] = assay: Antibacterial activity against lon-deficient Escherichia coli KD2372
Escherichia coli [6] = assay: Antibacterial activity against Escherichia coli K-12 harboring gyrA67/gyrB225 mutant gene

Structure (SMILES): CCn1cc(C(=O)O)c(=O)c2ccc(C)nc21
- Activity (Escherichia coli [1]): Active
- Activity (Escherichia coli [2]): Active
- Activity (Escherichia coli [3]): Active
- Activity (Escherichia coli [4]): inactive
- Activity (Escherichia coli [5]): Active
- Activity (Escherichia coli [6]): Active
